What was measured:
Assay type in all cases: in vivo
[1] = tested on: ducksalad (Heteranthera limosa); assay: Test C flooded paddy test: ducksalad; settings: scale 0 to 100 (0 no effect, 100 complete control)
How it was run: (§1)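 Plants at 2-leaf stage in pots flooded 3 cm above soil; compounds applied directly into the paddy water, depth maintained. Visual rating against controls after 13–15 days in greenhouse, scale 0 (no effect) to 100 (complete control).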

[2] = tested on: woolly cupgrass (Eriochloa villosa); assay: Test C pre-/postemergence: woolly cupgrass
From the text: Seeds of plant species selected from blackgrass (Alopecurus myosuroides), bromegrass, downy (downy bromegrass, Bromus tectorum), foxtail, green (green foxtail, Setaria viridis), ryegrass, Italian (Italian ryegrass, Lolium multiflorum), winter wheat (Triticum aestivum), wild oat (Avena fatua), galium (catchweed bedstraw, Galium aparine), bermudagrass (Cynodon dactylon), surinam grass (Brachiaria decumbens), cocklebur (common cocklebur, Xanthium strumarium), corn (Zea mays), large crabgrass (Digitaria sanguinalis), woolly cupgrass (Eriochloa villosa), foxtail, giant (giant foxtail, Setaria faberii), goosegrass (Eleusine indica), johnsongrass (Sorghum halepense), kochia (Kochia scoparia), lambsquarters (Chenopodium album), morningglory (Ipomoea coccinea), nightshade (eastern black nightshade, Solanum ptycanthum), nutsedge, yellow (yellow nutsedge, Cyperus esculentus), pigweed (Amaranthus retroflexus), ragweed (common ragweed, Ambrosia elation), soybean (Glycine max), common (oilseed) sunflower (Helianthus annuus), Russian thistle (Salsola kali) and velvetleaf (Abutilon theophrasti) were planted into a blend of loam soil and sand and treated preemergence with test chemicals formulated in a non-phytotoxic solvent mixture which included a surfactant.
(§2) At the same time, plants selected from these crop and weed species and also barley (winter barley, Hordeum vulgare), canarygrass (Phalaris minor), chickweed (common chickweed, Stellaria media) windgrass (Apera spica-venti) and deadnettle (henbit deadnettle, Lamium amplexicaule) were planted in pots containing Redi-Earth® planting medium (Scotts Company, 14111 Scottslawn Road, Marysville, Ohio 43041) comprising spaghnum peat moss, vermiculite, wetting agent and starter nutrients and treated with postemergence applications of test chemicals formulated in the same manner. Plants ranged in height from 2 to 18 cm (1- to 4-leaf stage) for postemergence treatments.
(§3) Treated plants and controls were maintained in a greenhouse for 13 to 15 days, after which time all species were compared to controls and visually evaluated. Plant response ratings, summarized in Table C, are based on a scale of 0 to 100 where 0 is no effect and 100 is complete control. A dash (-) response means no test result.

[3] = tested on: deadnettle (henbit deadnettle, Lamium amplexicaule); assay: Test C postemergence: deadnettle
From the text: as §2, §3

[4] = tested on: barnyardgrass (Echinochloa crus-galli); assay: Test C flooded paddy test: barnyardgrass; settings: scale 0 to 100 (0 no effect, 100 complete control)
How it was run: as §1

[5] = tested on: canarygrass (Phalaris minor); assay: Test C postemergence: canarygrass
How it was run: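 Greenhouse pot test; foliar postemergence treatment at 1- to 4-leaf stage. Rated visually at 13 to 15 days on a 0–100 control scale relative to untreated plants.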

[6] = tested on: cocklebur (common cocklebur, Xanthium strumarium); assay: Test C pre-/postemergence: cocklebur
How it was run: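 Preemergence on seeds in loam/sand, postemergence on 2–18 cm (1–4-leaf) plants in peat-based medium; compounds in non-phytotoxic solvent with surfactant. After 13–15 days in greenhouse, visual rating versus controls, 0 (no effect) to 100 (complete control).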

[7] = Postemergence, 31 g ai/ha, scale 0 to 100 (0 no effect, 100 complete control)
[8] = Postemergence, 62 g ai/ha, scale 0 to 100 (0 no effect, 100 complete control)
[9] = Postemergence, 125 g ai/ha, scale 0 to 100, 0 no effect, 100 complete control
[10] = Postemergence, 250 g ai/ha, scale 0 to 100
[11] = Preemergence, 31 g ai/ha, scale of 0 to 100, 0 is no effect, 100 is complete control
[12] = Preemergence, 125 g ai/ha, scale 0 to 100, 0 no effect, 100 complete control
[13] = Preemergence, 250 g ai/ha, scale 0 to 100, 0 no effect, 100 complete control
[14] = 31 g ai/ha, scale 0 to 100 (0 no effect, 100 complete control)
[15] = 62 g ai/ha, scale 0 to 100 (0 no effect, 100 complete control)
[16] = 125 g ai/ha, scale 0 to 100, 0 no effect, 100 complete control
[17] = Flood (flooded paddy test), 125 g ai/ha, visual rating after 13 to 15 days
[18] = Flood (flooded paddy test), 250 g ai/ha, visual rating after 13 to 15 days
[19] = Postemergence, 16 g ai/ha, scale 0 to 100, 0 no effect, 100 complete control
[20] = 16 g ai/ha, scale 0 to 100, 0 no effect, 100 complete control

Cc1nn(-c2ccc(C(F)(F)F)cc2)nc1Cc1ccnc(C(F)(F)F)c1 [Compound 47, 4-[[5-methyl-2-[4-(trifluoromethyl)phenyl]-2H-1,2,3-triazol-4-yl]methyl]-2-(trifluoromethyl)pyridine]
pest or weed control at 62 g/ha ([1]; Heteranthera limosa, Flood (flooded paddy test), 62 g ai/ha, visual rating after 13 to 15 days, read-out: Plant response rating, Ducksalad): 90% | pest or weed control at 125 g/ha ([1]; Heteranthera limosa, Flood (flooded paddy test), 125 g ai/ha, visual rating after 13 to 15 days, read-out: Plant response rating, Ducksalad): 90% | pest or weed control at 250 g/ha ([1]; Heteranthera limosa, Flood (flooded paddy test), 250 g ai/ha, visual rating after 13 to 15 days, read-out: Plant response rating, Ducksalad): 90% | pest or weed control at 31 g/ha ([1]; Heteranthera limosa, Flood, 31 g ai/ha, read-out: Plant response rating, Ducksalad): 0% | Plant response rating, Cupgrass, Woolly [2, 7]: 55 | Plant response rating, Cupgrass, Woolly [2, 8]: 65 | Plant response rating, Cupgrass, Woolly [2, 9]: 80 | Plant response rating, Cupgrass, Woolly [2, 10]: 90 | Plant response rating, Cupgrass, Woolly [2, 11]: 45 | Plant response rating, Cupgrass, Woolly ([2]; Preemergence, 62 g ai/ha, scale of 0 to 100, 0 is no effect, 100 is complete control): 80 | Plant response rating, Cupgrass, Woolly [2, 12]: 95 | Plant response rating, Cupgrass, Woolly [2, 13]: 98 | Plant response rating, Deadnettle [3, 14]: 95 | Plant response rating, Deadnettle [3, 15]: 100 | Plant response rating, Deadnettle [3, 16]: 100 | Plant response rating, Deadnettle ([3]; 250 g ai/ha, scale 0 to 100): 100 | pest or weed control at 62 g/ha ([4]; Echinochloa crus-galli, Flood (flooded paddy test), 62 g ai/ha, visual rating after 13 to 15 days, read-out: Plant response rating, Barnyardgrass): 50% | pest or weed control at 125 g/ha ([4]; Echinochloa crus-galli, Flood (flooded paddy test), 125 g ai/ha, visual rating after 13 to 15 days, read-out: Plant response rating, Barnyardgrass): 80% | pest or weed control at 250 g/ha ([4]; Echinochloa crus-galli, Flood (flooded paddy test), 250 g ai/ha, visual rating after 13 to 15 days, read-out: Plant response rating, Barnyardgrass): 80% | pest or weed control at 31 g/ha ([4]; Echinochloa crus-galli, Flood, 31 g ai/ha, read-out: Plant response rating, Barnyardgrass): 40% | Plant response rating, Canarygrass [5, 14]: 60 | Plant response rating, Canarygrass [5, 15]: 75 | Plant response rating, Canarygrass [5, 16]: 85 | Plant response rating, Canarygrass ([5]; 250 g ai/ha, scale 0 to 100): 90 | Plant response rating, Cocklebur [6, 7]: 10 | Plant response rating, Cocklebur [6, 8]: 65 | Plant response rating, Cocklebur [6, 9]: 70 | Plant response rating, Cocklebur [6, 10]: 70 | Plant response rating, Cocklebur [6, 11]: 0 | Plant response rating, Cocklebur ([6]; Preemergence, 62 g ai/ha, scale 0 to 100, 0 no effect, 100 complete control): 0 | Plant response rating, Cocklebur [6, 12]: 0 | Plant response rating, Cocklebur [6, 13]: 5

Cc1nn(-c2ccc(C(F)(F)F)cc2)nc1Cc1cccc(C(F)(F)F)c1 [Compound 124]
Plant response rating, Ducksalad [1, 17]: 90 | Plant response rating, Ducksalad [1, 18]: 90 | Plant response rating, Ducksalad ([1]; Flood, 31 g ai/ha): 20 | Plant response rating, Ducksalad ([1]; Flood, 62 g ai/ha): 90 | Plant response rating, Cupgrass, Woolly [2, 19]: 5 | Plant response rating, Cupgrass, Woolly [2, 7]: 5 | Plant response rating, Cupgrass, Woolly [2, 8]: 10 | Plant response rating, Cupgrass, Woolly [2, 9]: 20 | Plant response rating, Deadnettle [3, 20]: 75 | Plant response rating, Deadnettle [3, 14]: 80 | Plant response rating, Deadnettle [3, 15]: 98 | Plant response rating, Deadnettle [3, 16]: 98 | Plant response rating, Barnyardgrass [4, 17]: 50 | Plant response rating, Barnyardgrass [4, 18]: 50 | Plant response rating, Barnyardgrass ([4]; Flood, 31 g ai/ha): 20 | Plant response rating, Barnyardgrass ([4]; Flood, 62 g ai/ha): 40 | Plant response rating, Canarygrass [5, 20]: 0 | Plant response rating, Canarygrass [5, 14]: 20 | Plant response rating, Canarygrass [5, 15]: 35 | Plant response rating, Canarygrass [5, 16]: 85 | Plant response rating, Cocklebur [6, 19]: 10 | Plant response rating, Cocklebur [6, 7]: 15 | Plant response rating, Cocklebur [6, 8]: 20 | Plant response rating, Cocklebur [6, 9]: 55

Source: US9302999B2, “Substituted triazoles as herbicides” (E. I. DU PONT DE NEMOURS AND COMPANY, priority 2012, dated 2016)
